Measurements as given in patent US8906917B2, “Pyrimidine cyclohexyl glucocorticoid receptor modulators” (Corcept Therapeutics, Inc., priority 2011, dated 2014).

Legend:
[1] = target: T1, glucocorticoid receptors (endogenous) in SW1353/MMTV-5 cells (Homo sapiens, UniProt P04150); assay: GR functional assay using SW1353/MMTV-5 cells (MMTV-GRE luciferase reporter); assay type: cell-based
T1 construct: contains endogenous glucocorticoid receptors; endogenous in cells; host or cells: SW1353/MMTV-5 (human chondrosarcoma, stably transfected with pMAMneo-Luc reporter)
T1 sequence (P04150 1-777): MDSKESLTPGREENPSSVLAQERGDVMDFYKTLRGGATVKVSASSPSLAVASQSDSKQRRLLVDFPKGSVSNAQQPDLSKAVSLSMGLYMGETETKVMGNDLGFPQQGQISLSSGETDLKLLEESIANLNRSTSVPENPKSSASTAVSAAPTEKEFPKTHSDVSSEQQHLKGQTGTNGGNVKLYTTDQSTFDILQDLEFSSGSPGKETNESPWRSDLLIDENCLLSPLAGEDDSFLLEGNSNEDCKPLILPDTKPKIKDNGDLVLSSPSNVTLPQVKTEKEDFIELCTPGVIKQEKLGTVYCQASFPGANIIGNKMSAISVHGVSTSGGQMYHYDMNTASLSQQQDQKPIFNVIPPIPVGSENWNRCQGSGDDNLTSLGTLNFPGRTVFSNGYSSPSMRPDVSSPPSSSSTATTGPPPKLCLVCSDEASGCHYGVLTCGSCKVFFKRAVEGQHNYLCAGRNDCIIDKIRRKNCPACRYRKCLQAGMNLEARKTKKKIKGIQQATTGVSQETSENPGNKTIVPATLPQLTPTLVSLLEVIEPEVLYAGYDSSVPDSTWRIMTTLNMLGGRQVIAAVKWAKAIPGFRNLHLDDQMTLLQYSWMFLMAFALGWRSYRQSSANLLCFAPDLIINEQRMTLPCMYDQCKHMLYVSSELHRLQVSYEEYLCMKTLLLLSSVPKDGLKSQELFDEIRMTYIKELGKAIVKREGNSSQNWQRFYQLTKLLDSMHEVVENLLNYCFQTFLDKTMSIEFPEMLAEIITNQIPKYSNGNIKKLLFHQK
Method: SW1353/MMTV-5 is an adherent human chondrosarcoma cell line that contains endogenous glucocorticoid receptors. It was transacted with a plasmid (pMAMneo-Luc) encoding firefly luciferase located behind a glucocorticoid-responsive element (GRE) derived from a viral promoter (long terminal repeat of mouse mammary tumor virus). A stable cell line SW1353/MMTV-5 was selected with geneticin, which was required to maintain this plasmid.
SW1353/MMTV-5 cells were distributed in 96-well plates and incubated in medium (without geneticin) for 24 hrs.

[2] = target: T2, Human Recombinant Glucocorticoid Receptor (Homo sapiens, UniProt P04150); assay: Glucocorticoid receptor binding displacement assay with 3H-dexamethasone; conditions: displacement of 2.5 nM 3H-dexamethasone, 2.5 hrs at 4° C.; Ki from IC50 by Cheng-Prusoff; read-out: GR Binding Ki
T2 construct: This GR was a full-length steroid hormone receptor; host or cells: recombinant baculovirus-infected insect cells
T2 sequence (P04150 1-777): T1 sequence (P04150 1-777)
Method: Binding protocol: Compounds were tested in a binding displacement assay using human recombinant glucocorticoid receptor with ^3H-dexamethasone as the ligand. The source of the receptor was recombinant baculovirus-infected insect cells. This GR was a full-length steroid hormone receptor likely to be associated with heat-shock and other endogenous proteins.
For the IC50 determinations, test compounds were tested at 6 concentrations in duplicate. Test compounds were diluted from 10 mM stock in 100% DMSO. The tested solutions were prepared at 2× final assay concentration in 2% DMSO/assay buffer.
All reagents and the assay plate were kept on ice during the addition of reagents. The reagents were added to wells of a v-bottomed polypropylene plate in the following order: 25 μl of 10 nM 3H-dexamethasone solution, 50 μl of TB/NSB/compound solution and 25 μl of 2 nM GR solution. After the additions, the incubation mixture was mixed and incubated for 2.5 hrs at 4° C.
Alter 2.5 hrs incubation, unbound counts were removed with dextran coated charcoal (DCC) as follows: 15 μl of DCC solution (10% DCC in assay buffer) was added to all wells and mixed (total volume 115 μl). The plate was centrifuged at 4000 rpm for 10 minutes at 4° C. 75 μl of the supernatants was carefully pipetted into an optiplate. 150 μl of scintillation cocktail were added (Microscint-40, Perkin Elmer). The plate was vigorously shaken for approx. 10 minutes and counted on Topcount.
The IC50 values were converted to Ki (the inhibition constant) using the Cheng-Prusoff equation.
Reagents: Assay buffer: 10 mM potassium phosphate buffer pH 7.6 containing 5 mM DTT, 10 mM sodium molybdate, 100 μM EDTA and 0.1% BSA.

O=c1[nH]c([C@H]2CC[C@H](c3ccccc3)CC2)c(Cc2cccc(C(F)(F)F)c2)c(=O)n1CCO [Compound 13f, (E)-3-(2-Hydroxy-ethyl)-6-(4-phenyl-cyclohexyl)-5-(3-trifluoromethyl-benzyl)-1H-pyrimidine-2,4-dione]
Ki [1]: > 100 nM | Ki [2]: > 10 nM
